Data reported in patent publication US20120238549A1, “Nuclear Hormone Receptor Modulators” (ABBOTT LABORATORIES, priority 2011, published 2012).

molecular target: T1, Glucocorticoid Receptor (GR) (Homo sapiens, UniProt P04150); test: GR Florescence Polarization Assay (PolarScreen Glucocorticoid Receptor Competitor Assay, Red); details: Fluorescense polarization binding ranges; competition with fluorescent glucocorticoid, incubated overnight at 4° C.
T1 construct: purchased Invitrogen P2893
T1 sequence (P04150 1-777): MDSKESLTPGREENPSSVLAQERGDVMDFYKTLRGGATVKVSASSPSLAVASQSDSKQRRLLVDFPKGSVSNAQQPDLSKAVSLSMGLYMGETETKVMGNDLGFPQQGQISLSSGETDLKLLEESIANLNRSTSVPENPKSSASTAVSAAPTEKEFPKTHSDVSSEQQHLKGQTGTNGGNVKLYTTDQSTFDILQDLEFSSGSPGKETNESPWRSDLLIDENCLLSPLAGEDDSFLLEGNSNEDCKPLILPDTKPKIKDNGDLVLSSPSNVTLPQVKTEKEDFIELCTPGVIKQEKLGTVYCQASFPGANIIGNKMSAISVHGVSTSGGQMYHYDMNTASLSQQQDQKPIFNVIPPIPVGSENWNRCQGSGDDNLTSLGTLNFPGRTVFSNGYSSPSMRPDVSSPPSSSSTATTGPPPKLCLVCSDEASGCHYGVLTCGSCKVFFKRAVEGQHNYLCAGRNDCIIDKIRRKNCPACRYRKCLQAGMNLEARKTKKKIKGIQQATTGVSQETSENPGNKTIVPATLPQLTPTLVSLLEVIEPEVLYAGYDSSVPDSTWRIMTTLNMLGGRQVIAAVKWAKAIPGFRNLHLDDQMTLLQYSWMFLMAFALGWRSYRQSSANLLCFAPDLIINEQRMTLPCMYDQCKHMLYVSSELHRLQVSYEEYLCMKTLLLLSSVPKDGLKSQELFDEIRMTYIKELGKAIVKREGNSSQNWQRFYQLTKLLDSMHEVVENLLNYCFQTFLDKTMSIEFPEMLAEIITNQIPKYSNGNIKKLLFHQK
Procedure: GR Florescence Polarization Assay Florescence polarization assays were carried out using the PolarScreen™ Glucocorticoid Receptor Competitor Assay, Red from Invitrogen (P2893). The assay buffer was prepared according to the manufacturer's protocol and used to dilute the fluorescent glucocorticoid and GR. Compounds were prepared and serial diluted 1:4 in DMSO. Compound, fluorescent glucocorticoid and GR were added in a final volume of 20 μL and incubated overnight at 4° C. Fluorescent polarization was measured on the Perkinelmer Envision®.

| SMILES | IC50 [nM] |
| --- | --- |
| Cc1ncccc1NC(=O)c1ccc2c(c1)CCCC1CC(O)(COC(C)C(F)(F)F)CCC21Cc1ccccc1 (mixture of isomers) [Example 100] | < 100 |
| Cc1ncccc1NC(=O)c1ccc2c(c1)CCC[C@@H]1C[C@@](O)(C(F)(F)F)CC[C@@]21Cc1ccccc1 (racemic) [Example 3, (7aR,9R,11aS)-11a-Benzyl-9-hydroxy-9-trifluoromethyl-6,7,7a,8,9,10,11,11a-octahydro-5H-dibenzo[a,c]cycloheptene-3-carboxylic acid (2-methyl-pyridin-3-yl)-amide; compound with (7aS,9S,11aR)-11a-benzyl-9-hydroxy-9-trifluoromethyl-6,7,7a,8,9,10,11,11a-octahydro-5H-dibenzo[a,c]cycloheptene-3-carboxylic acid (2-methyl-pyridin-3-yl)-amide] | < 100 |
| Cc1ncccc1NC(=O)c1ccc2c(c1)CCC[C@@H]1CC(=O)CC[C@@]21Cc1ccccc1 (racemic) [Example 8, (7aR,11aS)-11a-Benzyl-9-oxo-6,7,7a,8,9,10,11,11a-octahydro-5H-dibenzo[a,c]cycloheptene-3-carboxylic acid (2-methyl-pyridin-3-yl)-amide; compound with (7aS,11aR)-11a-benzyl-9-oxo-6,7,7a,8,9,10,11,11a-octahydro-5H-dibenzo[a,c]cycloheptene-3-carboxylic acid (2-methyl-pyridin-3-yl)-amide] | < 100 |
| Cc1ncccc1NC(=O)c1ccc2c(c1)CCC[C@H]1CC(=O)CC[C@@]21Cc1ccccc1 (racemic) [Example 11, (7aS,11aS)-11a-Benzyl-9-oxo-6,7,7a,8,9,10,11,11a-octahydro-5H-dibenzo[a,c]cycloheptene-3-carboxylic acid (2-methyl-pyridin-3-yl)-amide; compound with (7aR,11aR)-11a-benzyl-9-oxo-6,7,7a,8,9,10,11,11a-octahydro-5H-dibenzo[a,c]cycloheptene-3-carboxylic acid (2-methyl-pyridin-3-yl)-amide] | < 100 |
| Cc1ncccc1NC(=O)c1ccc2c(c1)CCC[C@H]1C[C@@H](O)CC[C@@]21Cc1ccccc1 (racemic) [Example 16, (7aS,9S,11aS)-11a-Benzyl-9-hydroxy-6,7,7a,8,9,10,11,11a-octahydro-5H-dibenzo[a,c]cycloheptene-3-carboxylic acid (2-methyl-pyridin-3-yl)-amide; compound with (7aR,9R,11aR)-11a-benzyl-9-hydroxy-6,7,7a,8,9,10,11,11a-octahydro-5H-dibenzo[a,c]cycloheptene-3-carboxylic acid (2-methyl-pyridin-3-yl)-amide] | 100 to 1000 |
| Cc1ncccc1NC(=O)c1ccc2c(c1)CCC[C@H]1C[C@H](O)CC[C@@]21Cc1ccccc1 (racemic) [Example 17, (7aS,9R,11aS)-11a-Benzyl-9-hydroxy-6,7,7a,8,9,10,11,11a-octahydro-5H-dibenzo[a,c]cycloheptene-3-carboxylic acid (2-methyl-pyridin-3-yl)-amide; compound with (7aR,9S,11aR)-11a-benzyl-9-hydroxy-6,7,7a,8,9,10,11,11a-octahydro-5H-dibenzo[a,c]cycloheptene-3-carboxylic acid (2-methyl-pyridin-3-yl)-amide] | < 100 |
| COC[C@@]1(O)CC[C@@]2(Cc3ccccc3)c3ccc(C(=O)Nc4cccnc4C)cc3CCC[C@H]2C1 (racemic) [Example 18, (7aS,9R,11aS)-11a-Benzyl-9-hydroxy-9-methoxymethyl-6,7,7a,8,9,10,11,11a-octahydro-5H-dibenzo[a,c]cycloheptene-3-carboxylic acid (2-methyl-pyridin-3-yl)-amide; compound with (7aR,9S,11aR)-11a-benzyl-9-hydroxy-9-methoxymethyl-6,7,7a,8,9,10,11,11a-octahydro-5H-dibenzo[a,c]cycloheptene-3-carboxylic acid (2-methyl-pyridin-3-yl)-amide] | < 100 |
| Cc1ncccc1NC(=O)c1ccc2c(c1)CCCC1=C[C@](C)(O)CC[C@]12Cc1ccccc1 (racemic) [Example 19, (9R,11aS)-11a-Benzyl-9-hydroxy-9-methyl-6,7,9,10,11,11a-hexahydro-5H-dibenzo[a,c]cycloheptene-3-carboxylic acid (2-methyl-pyridin-3-yl)-amide; compound with (9S,11aR)-11a-benzyl-9-hydroxy-9-methyl-6,7,9,10,11,11a-hexahydro-5H-dibenzo[a,c]cycloheptene-3-carboxylic acid (2-methyl-pyridin-3-yl)-amide] | < 100 |
| CC[C@@]1(O)CC[C@@]2(Cc3ccccc3)c3ccc(C(=O)Nc4cccnc4C)cc3C(=O)CC[C@H]2C1 (racemic) [Example 23, (7aS,9R,11aS)-11a-Benzyl-9-ethyl-9-hydroxy-5-oxo-6,7,7a,8,9,10,11,11a-octahydro-5H-dibenzo[a,c]cycloheptene-3-carboxylic acid (2-methyl-pyridin-3-yl)-amide; compound with (7aR,9S,11aR)-11a-benzyl-9-ethyl-9-hydroxy-5-oxo-6,7,7a,8,9,10,11,11a-octahydro-5H-dibenzo[a,c]cycloheptene-3-carboxylic acid (2-methyl-pyridin-3-yl)-amide] | < 100 |
| CC#C[C@]1(O)CC[C@@]2(Cc3ccccc3)c3ccc(O)cc3CCC[C@H]2C1 (racemic) [Example 28, (3S,4aS,11bS)-11b-Benzyl-3-prop-1-ynyl-2,3,4,4a,5,6,7,11b-octahydro-1H-dibenzo[a,c]cycloheptene-3,9-diol; compound with (3R,4aR,11bR)-11b-benzyl-3-prop-1-ynyl-2,3,4,4a,5,6,7,11b-octahydro-1H-dibenzo[a,c]cycloheptene-3,9-diol] | 100 to 1000 |
| CC#C[C@]1(O)CC[C@@]2(Cc3ccccc3)c3ccc(C(=O)Nc4cccnc4C)cc3CCC[C@H]2C1 (racemic) [Example 29, (7aS,9S,11aS)-11a-Benzyl-9-hydroxy-9-prop-1-ynyl-6,7,7a,8,9,10,11,11a-octahydro-5H-dibenzo[a,c]cycloheptene-3-carboxylic acid (2-methyl-pyridin-3-yl)-amide; compound with (7aR,9R,11aR)-11a-benzyl-9-hydroxy-9-prop-1-ynyl-6,7,7a,8,9,10,11,11a-octahydro-5H-dibenzo[a,c]cycloheptene-3-carboxylic acid (2-methyl-pyridin-3-yl)-amide] | 100 to 1000 |
| Cc1ncccc1NC(=O)c1ccc2c(c1)CCC[C@H]1C[C@](C)(O)CC[C@@]21Cc1ccccc1 (racemic) [Example 30, (7aS,9R,11aS)-11a-Benzyl-9-hydroxy-9-methyl-6,7,7a,8,9,10,11,11a-octahydro-5H-dibenzo[a,c]cycloheptene-3-carboxylic acid (2-methyl-pyridin-3-yl)-amide; compound with (7aR,9S,11aR)-11a-benzyl-9-hydroxy-9-methyl-6,7,7a,8,9,10,11,11a-octahydro-5H-dibenzo[a,c]cycloheptene-3-carboxylic acid (2-methyl-pyridin-3-yl)-amide] | < 100 |
| CCC[C@@]1(O)CC[C@@]2(Cc3ccccc3)c3ccc(C(=O)Nc4cccnc4C)cc3CCC[C@H]2C1 (racemic) [Example 31, (7aS,9R,11aS)-11a-Benzyl-9-hydroxy-9-propyl-6,7,7a,8,9,10,11,11a-octahydro-5H-dibenzo[a,c]cycloheptene-3-carboxylic acid (2-methyl-pyridin-3-yl)-amide; compound with (7aR,9S,11aR)-11a-benzyl-9-hydroxy-9-propyl-6,7,7a,8,9,10,11,11a-octahydro-5H-dibenzo[a,c]cycloheptene-3-carboxylic acid (2-methyl-pyridin-3-yl)-amide] | < 100 |
| C#C[C@]1(O)CC[C@@]2(Cc3ccccc3)c3ccc(C(=O)Nc4cccnc4C)cc3CCC[C@H]2C1 (racemic) [Example 32, (7aS,9S,11aS)-11a-Benzyl-9-ethynyl-9-hydroxy-6,7,7a,8,9,10,11,11a-octahydro-5H-dibenzo[a,c]cycloheptene-3-carboxylic acid (2-methyl-pyridin-3-yl)-amide; compound with (7aR,9R,11aR)-11a-benzyl-9-ethynyl-9-hydroxy-6,7,7a,8,9,10,11,11a-octahydro-5H-dibenzo[a,c]cyclo heptene-3-carboxylic acid (2-methyl-pyridin-3-yl)-amide] | < 100 |
